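Dose response: 5 concentrations. Exposure: 48 h. Format: 96-well plates. Endpoint: linear interpolation; highest concentration if not reached. TGI is the concentration that stops growth completely.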
Tests used:
Test in all cases: NCI anticancer screen, dose series, 48 h
[1] = tested on: SNB-19 CNS
[2] = tested on: SF-268 CNS
[3] = tested on: MOLT-4 leukemia
[4] = tested on: HOP-62 NSCLC
[5] = tested on: TK-10 renal
[6] = tested on: HCT-15 colon
[7] = tested on: M14 melanoma
[8] = tested on: OVCAR-4 ovarian
[9] = tested on: ACHN renal
[10] = tested on: SF-295 CNS
[11] = tested on: MDA-MB-231 breast

SMILES	TGI [1] [µM]	TGI [2] [µM]	TGI [3] [µM]	TGI [4] [µM]	TGI [5] [µM]	TGI [6] [µM]	TGI [7] [µM]	TGI [8] [µM]	TGI [9] [µM]	TGI [10] [µM]	TGI [11] [µM]
CN1CN(c2ccccc2)C2(CCN(CCc3csc4ccccc34)CC2)C1=O	93.4	> 100	41.9	26.4	34	51.5	38.4				
CC[C@H]1OC([C@H](O)C/C=C\C#C[Si](C)(C)C)C/C=C\C[C@H]1O[Si](C)(C)C(C)(C)C (stereo partly drawn)	> 100	> 100	> 100	> 100		> 100	> 100	> 100	> 100	> 100	> 100
COc1ccc(CCNC(=O)Cc2cc(OC)c(OC)cc2CO)cc1OC		> 100	> 100	> 100	> 100	> 100	> 100	> 100	> 100	> 100	> 100
CC(=O)NC1=C(C)C(=O)c2c(nc3n2CCC3O)C1=N (stereo not drawn)	50.4	22.3	> 100	> 100	85.4	41.1		14.6	37.7	38	
CC1(C)CC(=O)c2c(nc3ccc4ccccc4c3c2-c2ccc(NC(=O)CCC(=O)Nc3ccc(-c4c5c(nc6ccc7ccccc7c46)CC(C)(C)CC5=O)cc3)cc2)C1	> 100	> 100	> 100	> 100	> 100		> 100		> 100	> 100	> 100
COc1ccc(CC2NC(=O)/C=C/CC(C(C)C3OC3c3ccccc3)OC(=O)C(CC(C)C)OC(=O)C(C)CNC2=O)cc1Cl (stereo not drawn)	> 0.1	> 0.1		> 0.1	> 0.1	> 0.1	0.00141	> 0.1	> 0.1		3.5e-05
Brc1ccc2[nH]cc(-c3nc(-c4c[nH]c5ccccc45)cs3)c2c1	12.2	11.4		21.7	10.5	6.89	3.73	23.1	8.75	10.6	7.68
CCC(CC)n1c(C)nc2c1C(=O)c1ccccc1C2=O	> 100	> 100	> 100	> 100	> 100	> 100	> 100	> 100	> 100	> 100	
CC(=O)OC1c2ccccc2CCCCCCC12OCCO2 (stereo not drawn)	> 100	> 100	> 100	> 100	> 100	> 100	> 100	> 100	> 100	> 100	
COc1ccc(C(C#N)NNc2nc(C)cc(=O)[nH]2)cc1OC (stereo not drawn)		> 100	> 100	> 100	> 100	> 100	> 100	> 100	> 100	> 100	
O=c1[nH]nc(Cc2ccccc2)n1Nc1ccccc1		> 100	> 100	> 100	> 100	> 100		> 100	> 100	> 100	> 100
C#C[C@]1(O)CC[C@H]2[C@@H]3CCc4cc(OC(=O)c5cccc6cc7ccccc7nc56)ccc4[C@H]3CC[C@@]21C	> 100	> 100	> 100	> 100		> 100	> 100	> 100	> 100		71.9
CCC1C(c2cc(OC)c(OC)c(OC)c2)c2cc3c(cc2OC1N1CCOCC1)OCO3 (stereo not drawn)	25	41.5		20.6		> 100	23.7	14.6	16.1	8.52	61.9
CNC(=O)c1[nH]cnc1/N=N/N(C)N		> 100	> 100	> 100	> 100	> 100	> 100	> 100		> 100	> 100
COc1cc2c(c(OC)c1OC)-c1ccc(SC)cc1[C@H](OC(=O)c1ccccc1)CC2		> 100	> 100	> 100	> 100	> 40.6		> 100	> 100	> 100	
C1=C\CCCCN2C[C@H]3CCCC/C=C\CCCCN4CC[C@@H]([C@H](CCCCCC/1)C4)[C@H](C3)C2	5.3	5.74	4.79	5	5.8	3.27		6.11	4.06	3.53	3.01
S=C1N=C(Cl)C2(NN1)c1ccccc1-c1ccccc12		> 10	> 10	> 10	> 10	> 10	> 10	> 10			> 10
Cc1cn(Cc2ccccc2CCl)c(=O)[nH]c1=O	25.9	38.1	> 100	35.3	33.8	31.7	28.2	> 100	27.1	30.4	
O=S1C2=C(Cc3ccccc3)C(Cc3ccccc3)=C1CCc1cccc(c1)CC2	28.1	31.8	63.7		33.7	30.5	29	21.4	30.8	27.1	31.3
CC(C)C1CC(O)O[C@@H]([C@@H](C)[C@H]2CC(=O)[C@@H]3[C@@H]4[C@@H](O)[C@H](O)[C@H]5[C@@H](O)[C@H](O)CC[C@]5(C)[C@H]4CC[C@]23C)C1 (stereo partly drawn)	> 100	> 100	> 100	61.4	> 100	> 100	> 100	> 100	62.1	> 100	
CCOc1cc(NC(C)=O)ccc1C(=O)NN1C(=O)/C(=C/c2cc(OC)c(OC)c(OC)c2)N=C1c1ccccc1	> 100	> 100	> 100			> 100	> 100	> 100	> 100	> 100	
O=C(CC(C(=O)c1ccoc1)c1ccco1)c1ccco1 (stereo not drawn)		> 100	> 100	> 100	> 100	> 100	> 100	> 100	> 100	> 100	> 100

From PubChem BioAssay (NCI)
